# Like-named read-outs stand apart in the source and are kept apart here.
# Legend:
# [1] = tested on: Bacillus stearothermophilus spores; settings: 3 g of 57% hydrogen peroxide, 5 Minutes Vaporization
# From the text: The Petri dish contained a biological challenge consisting of 2.2×10^6 Bacillus stearothermophilus spores on a stainless steel coupon. A coupon was also placed in the center of each of the three lumens. The coupon in the Petri dish was used as a test of the effectiveness of the method at sterilizing the exterior of a device, and the coupons in the lumens were a test of the effectiveness of sterilizing the interior of the lumens. In Example 5, the Petri dish and three lumens were placed in a tray with 40 medical devices in the sterilization chamber, the chamber was evacuated to 0.4 torr, 3 g of 57% hydrogen peroxide were vaporized into the chamber over 5 minutes, and the chamber was vented to 1 atmosphere. The hydrogen peroxide was then allowed to diffuse for a total of 20 minutes, either at 1 atmosphere pressure or 4 torr. In the first experiment in Table 7, the sterilization chamber was vented to atmosphere after the hydrogen peroxide was vaporized into the sterilization chamber, and the hydrogen peroxide vapor was allowed to diffuse at 1 atmosphere for 19.5 minutes. […] The first experiment was the control experiment for the second experiment. In the second experiment in Table 7, the sterilization chamber was vented to atmosphere for 0.5 minutes, then the pressure in the sterilization chamber was reduced to 4 torr and controlled at that pressure for a total of 19.5 minutes.
# [2] = tested on: Bacillus stearothermophilus spores
# From the text: The Petri dish contained a biological challenge consisting of 2.2×10^6 Bacillus stearothermophilus spores on a stainless steel coupon. A coupon was also placed in the center of each of the three lumens. The coupon in the Petri dish was used as a test of the effectiveness of the method at sterilizing the exterior of a device, and the coupons in the lumens were a test of the effectiveness of sterilizing the interior of the lumens. In the following experiment, the condensed hydrogen peroxide was revaporized multiple times. The following procedure was followed in the experiment. A tray containing the Petri dish and three lumens with inoculated blades was placed in a 173 L sterilization chamber, as in the other examples, and the chamber was evacuated to 0.4 torr. The experiment with multiple revaporizations was conducted as follows: 1. 3 grams of 59% hydrogen peroxide were introduced into the vaporizer. 2. The hydrogen peroxide was vaporized and introduced into the sterilization chamber over a period of 5 minutes. 3. The pressure was reduced to 4 torr for 5 minutes to revaporize the hydrogen peroxide. 4. The sterilization chamber was vented to 1 atmosphere pressure for 0.5 minutes to condense the vapor again. 5. The pressure in the sterilization chamber was reduced to 4 torr and maintained at a constant pressure of 4 torr for 14.5 minutes. The total cycle lasted 25 minutes.
# [3] = tested on: Bacillus stearothermophilus spores; settings: 3 g of 59 wt % hydrogen peroxide, 5 Minutes Vaporization and 20 Minutes Diffusion
# Procedure: (§1) The Petri dish contained a biological challenge consisting of 2.2×10^6 Bacillus stearothermophilus spores on a stainless steel coupon. A coupon was also placed in the center of each of the three lumens. The coupon in the Petri dish was used as a test of the effectiveness of the method at sterilizing the exterior of a device, and the coupons in the lumens were a test of the effectiveness of sterilizing the interior of the lumens.
# In this example, the procedure of Example 3 was carried out, but the valve between the sterilization chamber and the vacuum pump was closed after the desired pressure was reached. In Example 3, constant pressure was maintained throughout the 20 minutes of diffusion.
# The Petri dish and three lumens were placed in a tray in a 173 L sterilization chamber, and the chamber was evacuated to 0.4 torr. A total of 3 g of 59 wt % hydrogen peroxide was vaporized in the vaporizer and diffused into the sterilization chamber over a period of 5 minutes, and the pressure in the sterilization chamber was reduced to the desired value, and the valve between the sterilization chamber and the vacuum pump was closed. The hydrogen peroxide was then allowed to diffuse in the sterilization chamber for 20 minutes.
# [4] = tested on: Bacillus stearothermophilus spores; settings: 3 g of 59% hydrogen peroxide, 5 Minutes Vaporization
# From the text: as §1, with “the lumens. In Example 2, the test of Example 1 with 3 g of 59% hydrogen peroxide was repeated with the addition of 20 minutes exposure time to the hydrogen peroxide vapor.” for “the lumens.”
# [5] = tested on: Bacillus stearothermophilus spores; settings: 5 minutes vaporization, no revaporization
# From the text: In Example 1, the following items were placed in a CSR-wrapped tray in a 173 L sterilization chamber: Open Petri dish 2.48 mm id×50 cm Teflon lumen 2.48 mm id×75 cm Teflon lumen 2.48 mm id×100 cm Teflon lumen 40 pieces of medical devices The Petri dish contained a biological challenge consisting of 2.2×10^6 Bacillus stearothermophilus spores on a stainless steel coupon. A coupon was also placed in the center of each of the three lumens. The coupon in the Petri dish was used as a test of the effectiveness of the method at sterilizing the exterior of a device, and the coupons in the lumens were a test of the effectiveness of sterilizing the interior of the lumens. Three experiments were performed in which 1, 2, and 3 g of 59 wt % hydrogen peroxide were introduced into the vaporizer after the chamber was evacuated to 0.4 torr and allowed to vaporize and diffuse into the chamber for 5 minutes.
# [6] = tested on: Bacillus stearothermophilus spores; settings: 3 g of 59 wt % hydrogen peroxide, 5 Minutes Vaporization and 20 Minutes Diffusion; remark: listed apart in the source
# From the text: as §1
# In Example 3, the pressure in the sterilization chamber was reduced to 0.4 torr, a total of 3 g of 59 wt % hydrogen peroxide was placed in the vaporizer, and the hydrogen peroxide was vaporized and diffused into the sterilization chamber for 5 minutes. The hydrogen peroxide was then allowed to diffuse at various pressures for 20 minutes. The pressure in the sterilization chamber was at constant pressure by controlling the pressure with an automatic valve between the sterilization chamber and the vacuum pump.
# The experiment on the first line of Table 5 is the control experiment, in which the hydrogen peroxide was vaporized into the chamber and allowed to diffuse with the valve between the sterilization chamber and the vacuum pump closed. The pressure in the sterilization chamber was 9.5 torr, which is higher than the vapor pressure of 43 mole % hydrogen peroxide/water solution at 20° C., the approximate temperature of the equipment in the sterilization chamber, as shown in Table 2.
# In the experiments described on the following lines of Table 5, the 3 grams of 59 wt % hydrogen peroxide was vaporized for 5 minutes.
# The pressure in the sterilization chamber was then reduced, and the condensed vapor was vaporized and allowed to diffuse at constant pressure for 20 minutes. The interior of the sterilization chamber was maintained at a constant pressure by the automatic valve between the sterilization chamber and the vacuum pump. The constant pressure in the sterilization chamber ranged from 7 torr to 1 torr.
# In the examples on the following lines, the same procedure was followed, vaporizing 3 g of 59 wt % hydrogen peroxide for 5 minutes and diffusing at constant pressure for 20 minutes. The constant diffusion pressure ranged from 1 to 6 torr.
# [7] = 0.5 Minutes Vent Plus 19.5 Minutes Reducing and Controlling at 4 Torr
# [8] = 0.5 Minutes Vent Plus 19.5 Minutes at 1 Atm.
# [9] = 3 grams of 59% hydrogen peroxide, Cycle with Two-Vaporization Process: 5 minutes vaporization, 4 torr 5 minutes, vent 1 atmosphere 0.5 minutes, 4 torr 14.5 minutes
# [10] = control: 5 Minutes Vaporization plus 20 Minutes Diffusion at 1 atm.
# [11] = Valve closed at 1 torr, final pressure about 1.7 torr
# [12] = Valve closed at 2 torr, final pressure about 2.8 torr
# [13] = Reducing and controlling at 1 torr
# [14] = Reducing and controlling at 2 torr
# [15] = Reducing and controlling at 3 torr
# [16] = Reducing and controlling at 4 torr
# [17] = Reducing and controlling at 5 torr
# [18] = Reducing and controlling at 6 torr
# [19] = Reducing and controlling at 7 torr
# [20] = Without pump-down, final pressure about 9.5 torr
compound,measurement,setting,value
OO [hydrogen peroxide],Sterility Results In 2.48 mm × 50 cm lumen,[1]; [7],−
same,Sterility Results In 2.48 × 75 cm Lumen,[1]; [7],−
same,Sterility Results In 2.48 × 100 cm lumen,[1]; [7],−
same,Sterility Results In Open Petri Dish,[1]; [7],−
same,Sterility Results In 2.48 mm × 50 cm lumen,[1]; [8],−
same,Sterility Results In 2.48 × 75 cm Lumen,[1]; [8],+
same,Sterility Results In 2.48 × 100 cm lumen,[1]; [8],+
same,Sterility Results In Open Petri Dish,[1]; [8],−
same,Sterility Results In 2.48 mm × 50 cm lumen,[2]; [9],−
same,Sterility Results In 2.48 mm × 75 cm lumen,[2]; [9],−
same,Sterility Results In 2.48 mm × 100 cm lumen,[2]; [9],−
same,Sterility Results In Open Petri Dish,[2]; [9],−
same,Sterility Results In 2.48 mm × 50 cm lumen,[2]; [10],−
same,Sterility Results In 2.48 mm × 75 cm lumen,[2]; [10],+
same,Sterility Results In 2.48 mm × 100 cm lumen,[2]; [10],+
same,Sterility Results In Open Petri Dish,[2]; [10],−
same,Sterility Results In 2.48 mm × 50 cm lumen,[3]; [11],−
same,Sterility Results In 2.48 mm × 75 cm lumen,[3]; [11],−
same,Sterility Results In 2.48 mm × 100 cm lumen,[3]; [11],+
same,Sterility Results In Open Petri Dish,[3]; [11],−
same,Sterility Results In 2.48 mm × 50 cm lumen,[3]; [12],−
same,Sterility Results In 2.48 mm × 75 cm lumen,[3]; [12],−
same,Sterility Results In 2.48 mm × 100 cm lumen,[3]; [12],−
same,Sterility Results In Open Petri Dish,[3]; [12],−
same,Sterility Results In 2.48 mm × 50 cm lumen,[4]; Diffusion Time 0 Minute,−
same,Sterility Results In 2.48 mm × 75 cm lumen,[4]; Diffusion Time 0 Minute,+
same,Sterility Results In 2.48 × 100 cm lumen,[4]; Diffusion Time 0 Minute,+
same,Sterility Results In Open Petri Dish,[4]; Diffusion Time 0 Minute,−
same,Sterility Results In 2.48 mm × 50 cm lumen,[4]; Diffusion Time 20 Minutes,−
same,Sterility Results In 2.48 mm × 75 cm lumen,[4]; Diffusion Time 20 Minutes,+
same,Sterility Results In 2.48 × 100 cm lumen,[4]; Diffusion Time 20 Minutes,+
same,Sterility Results In Open Petri Dish,[4]; Diffusion Time 20 Minutes,−
same,Sterility Results In 2.48 mm × 50 cm Teflon lumen,[5]; 1 g 59% hydrogen peroxide,−
same,Sterility Results In 2.48 mm × 75 cm Teflon lumen,[5]; 1 g 59% hydrogen peroxide,+
same,Sterility Results In 2.48 × 100 cm Teflon lumen,[5]; 1 g 59% hydrogen peroxide,+
same,Sterility Results In Open Petri Dish,[5]; 1 g 59% hydrogen peroxide,−
same,Sterility Results In 2.48 mm × 50 cm Teflon lumen,[5]; 2 g 59% hydrogen peroxide,−
same,Sterility Results In 2.48 mm × 75 cm Teflon lumen,[5]; 2 g 59% hydrogen peroxide,+
same,Sterility Results In 2.48 × 100 cm Teflon lumen,[5]; 2 g 59% hydrogen peroxide,+
same,Sterility Results In Open Petri Dish,[5]; 2 g 59% hydrogen peroxide,−
same,Sterility Results In 2.48 mm × 50 cm Teflon lumen,[5]; 3 g 59% hydrogen peroxide,−
same,Sterility Results In 2.48 mm × 75 cm Teflon lumen,[5]; 3 g 59% hydrogen peroxide,+
same,Sterility Results In 2.48 × 100 cm Teflon lumen,[5]; 3 g 59% hydrogen peroxide,+
same,Sterility Results In Open Petri Dish,[5]; 3 g 59% hydrogen peroxide,−
same,Sterility Results In 2.48 mm × 50 cm lumen,[6]; [13],−
same,Sterility Results In 2.48 mm × 75 cm lumen,[6]; [13],+
same,Sterility Results In 2.48 mm × 100 cm lumen,[6]; [13],+
same,Sterility Results In Open Petri Dish,[6]; [13],−
same,Sterility Results In 2.48 mm × 50 cm lumen,[6]; [14],−
same,Sterility Results In 2.48 mm × 75 cm lumen,[6]; [14],−
same,Sterility Results In 2.48 mm × 100 cm lumen,[6]; [14],+
same,Sterility Results In Open Petri Dish,[6]; [14],−
same,Sterility Results In 2.48 mm × 50 cm lumen,[6]; [15],−
same,Sterility Results In 2.48 mm × 75 cm lumen,[6]; [15],−
same,Sterility Results In 2.48 mm × 100 cm lumen,[6]; [15],−
same,Sterility Results In Open Petri Dish,[6]; [15],−
same,Sterility Results In 2.48 mm × 50 cm lumen,[6]; [16],−
same,Sterility Results In 2.48 mm × 75 cm lumen,[6]; [16],−
same,Sterility Results In 2.48 mm × 100 cm lumen,[6]; [16],−
same,Sterility Results In Open Petri Dish,[6]; [16],−
same,Sterility Results In 2.48 mm × 50 cm lumen,[6]; [17],−
same,Sterility Results In 2.48 mm × 75 cm lumen,[6]; [17],−
same,Sterility Results In 2.48 mm × 100 cm lumen,[6]; [17],−
same,Sterility Results In Open Petri Dish,[6]; [17],−
same,Sterility Results In 2.48 mm × 50 cm lumen,[6]; [18],−
same,Sterility Results In 2.48 mm × 75 cm lumen,[6]; [18],−
same,Sterility Results In 2.48 mm × 100 cm lumen,[6]; [18],−
same,Sterility Results In Open Petri Dish,[6]; [18],−
same,Sterility Results In 2.48 mm × 50 cm lumen,[6]; [19],−
same,Sterility Results In 2.48 mm × 75 cm lumen,[6]; [19],−
same,Sterility Results In 2.48 mm × 100 cm lumen,[6]; [19],+
same,Sterility Results In Open Petri Dish,[6]; [19],−
same,Sterility Results In 2.48 mm × 50 cm lumen,[6]; [20],−
same,Sterility Results In 2.48 mm × 75 cm lumen,[6]; [20],+
same,Sterility Results In 2.48 mm × 100 cm lumen,[6]; [20],+
same,Sterility Results In Open Petri Dish,[6]; [20],−

# — US6451254B1, “Sterilization of diffusion-restricted area by revaporizing the condensed vapor” (Ethicon, Inc., priority 1998, dated 2002)
